Measurements published in patent US20230039816A1, “METHOD FOR INDUCING HEPATOCYTE PLASTICITY” (Public University Corporation Yokohama City University, priority 2019, published 2023).

Experiments:
[1] = tested on: old N-Heps (D52-, D62-, D72-, D82-Hep); assay: Plasticity induction of old N-Heps in RM with epigenetic regulators; assay type: cell-based, human; conditions: RM with 0.25 mM NaB, 0.5 mM VPA, 10 μM Trany, 0.5 μM RG108 or 0.5 μM BIX
Description: (§1) The medium was changed on day 1, 3, and 5. To block the PI3K and MAPK signaling pathways, 10 μM LY29002 and a given dose of PD0325902 (0.01 μM˜1 μM) were each added to RM. […] To regulate epigenetic modification, 0.25 mM NaB, 0.5 mM VPA, 10 μM Trany, 0.5 μM RG108 and 0.5 μM BIX were added in RM. The number of cells was analyzed using an Incell analyzer 2000 (GE Healthcare) combined with Hoechst 33342 staining (Invitrogen).

[2] = tested on: D22-pHC; assay: Hepatocyte differentiation from pHC; assay type: cell-based, human; conditions: HDM with 3 μM RA, 15 days
Description: The hepatocyte differentiation of pHCs was initiated at about 90% confluence. For 8 days, the medium was changed to HDM containing 3 μM RA and for another 7 days, the medium was changed to RA-free HDM. The medium was changed every 2 days. The total hepatocyte differentiation period was 15 days.

[3] = tested on: D22-Hep; assay: Induction of proliferation of D22-Hep in reprogramming medium (RM); assay type: cell-based, human; conditions: 6 days in BM+SMs/RM; PD0325901 0.01-1 μM, LY294002 10 μM, DZNep 0.1 μM, FGF2 added to BM+SMs
Description: as §1

[4] = tested on: elderly model (mice fed CDE diet); assay: Induction of hepatic progenitor cells in elderly mice on CDE diet; assay type: in vivo
Source text: Finally, we investigated whether HDACi could improve the induction of hepatic progenitor cells in elderly models. To induce hepatic progenitor cells in mice, we fed young and elderly mice with a choline-deficient, ethionine-supplemented (CDE) diet for 21 days.

[5] = tested on: PHHs; assay: Plasticity induction of primary human hepatocytes; assay type: cell-based; conditions: PHHs in RM+NaB vs RM
Description: The cryopreserved PHHs were thawed according to the manufacturer's instructions. For the positive control experiments, PHHs were cultured on collagen I-coated culture dishes at a density of 1×10^5 cells/cm^2 using Williams E medium containing 5% FBS, 1 μM dexamethasone, 100 IU/mL penicillin (Thermo Fisher Scientific), 100 μg/mL streptomycin (Thermo Fisher Scientific), 4 μg/mL Human Recombinant Insulin (Sigma), 2 mM GlutaMAX (Thermo Fisher Scientific), and 15 mM HEPES (Sigma). After 24 h, the supernatant from PHHs was collected for ALB analysis. […] At day 0 of culture, 5% FBS was used to improve cell adherence. After 24 h, the medium was exchanged with a fresh medium and subsequently changed every 2 days.

[6] = tested on: EZH2; assay: EZH2 transcription by Q-PCR in reprogrammed hepatocytes; assay type: cell-based, human; conditions: RM treated D22-Hep
Description: The medium was changed on day 1, 3, and 5. To block the PI3K and MAPK signaling pathways, 10 μM LY29002 and a given dose of PD0325902 (0.01 μM 1 μM) were each added to RM. […] To regulate epigenetic modification, 0.25 mM NaB, 0.5 mM VPA, 10 μM Trany, 0.5 μM RG108 and 0.5 μM BIX were added in RM. […] Total RNA was isolated using a PureLinkTM RNA Mini Kit.

| Compound | proliferation of pHCs induced from D52-Heps [1] | induced cellular proliferation of D22-Hep [3] | also measured |
| --- | --- | --- | --- |
| O=C(O)C(Cc1c[nH]c2ccccc12)N1C(=O)c2ccccc2C1=O (stereo not shown) [RG108] | such promotion was not detectable | – | – |
| N[C@@H]1C[C@H]1c1ccccc1 (racemic) [tranylcypromine] | such promotion was not detectable | – | – |
| CC1=C(/C=C/C(C)=C/C=C/C(C)=C/C(=O)O)C(C)(C)CCC1 [retinoic acid] | – | – | ALB production and hepatocyte morphology [2]: significant improvement in ALB production and typical hepatocyte morphology |
| Cl.Nc1nccc2c1ncn2[C@@H]1C=C(CO)[C@@H](O)[C@H]1O [DZNep, 3-deazaneplanocin A hydrochloride] | – | significant attenuation of the induced cellular proliferation | – |
| COc1cc2nc(N3CCCN(C)CC3)nc(NC3CCN(Cc4ccccc4)CC3)c2cc1OC [BIX01294] | such promotion was not detectable | – | – |
| CCCC(=O)[O-].[Na+] [NaB, sodium butyrate] | markedly promoted the proliferation of pHCs | – | survival rate ([4]; CDE diet): improved; induced Ki67 positive and Epcam positive population ([4]; CDE diet 21 days, liver sections): significantly increased; plasticity induction efficiency [5]: significantly increased the plasticity induction efficiency |
| CCCC(CCC)C(=O)O [VPA, valproic acid] | markedly promoted the proliferation of pHCs | – | – |
| FGF2: Recombinant Human FGF2, member of the FGF family | – | the induced proliferative ability greatly improved | – |
| O=C(NOC[C@H](O)CO)c1ccc(F)c(F)c1Nc1ccc(I)cc1F [PD0325901] | – | inhibited the FGF2-mediated cellular proliferation in a dose-dependent manner | EZH2 transcription [6]: suppressed |
